# Values joined by “and” are separate entries in the source; they are usually repeats but may differ in a detail not shown here. Equal entries are not always repeated.
# Experiments:
# [1] = Bodyweight, CIDP mouse model; assay type: in vivo; conditions: per animal, listed as hAAT
# Protocol: (§1) C57BL/6 mice were received at 8 weeks of age and housed under controlled conditions for the duration of the study. Three groups of 4 animals each were assigned to the following subcutaneous treatments twice daily at 7:00 AM and 7:00 PM for 2 weeks, from 20 to 35 days after the start of disease induction: • Wild type (WT) mice receiving the vehicle, 0.9% NaCl (positive control) • CIDP mice receiving the vehicle, 0.9% NaCl (negative control) • CIDP mice receiving human AAT (AAT), 50 mg/kg per injection
# (§2) Disease induction consisted in subcutaneous injection of mouse sciatic nerve homogenate in phosphate buffer saline (PBS)+Freund's adjuvant mixture at 10 mL/kg. For each treatment, 3 different body sites injections were performed. Control mice also received three subcutaneous injections of PBS+Freund's adjuvant at the same 3 different body sites.
# CIDP mice = assay: Von Frey test (paw withdrawal threshold), CIDP mouse model; assay type: in vivo; conditions: for Von Frey, paw withdrawal threshold (Mean ± SD): CIDP mice; for von Frey test, Paw withdrawal threshold, group MEAN: group mean of 4 animals; for von Frey test, Paw withdrawal threshold, Mean/animal: per animal; for von Frey test, Paw withdrawal threshold, Mean/animal / von Frey test, Paw withdrawal threshold, set 1 / von Frey test, Paw withdrawal threshold, set 2 / von Frey test, Paw withdrawal threshold, set 3: listed as hAAT; for von Frey test, Paw withdrawal threshold, set 1 / von Frey test, Paw withdrawal threshold, set 2 / von Frey test, Paw withdrawal threshold, set 3: raw data per animal
# Protocol: as §1, §2
# On the first (Day 20) and last (Day 35) day of treatment, the neuromuscular and performance of animals was tested with a rotarod test, grip test and a sensory test using the Von Frey filament test, as well as sciatic nerve electrophysiology test. After the last treatment at Day 35, these tests were repeated, animals were sacrificed and the left sciatic nerve was sampled for histological evaluation of the number and size of […].
# SH-SY5Y cells = assay: Cell viability assay (CCK-8) of SH-SY5Y treated with 6-OHDA; assay type: cell-based; conditions: 6-OHDA combined with AAT 25 μM, CCK-8 absorbance 450 nm
# Protocol: SH-SY5Y cells, which are commonly used to model neurodegenerative disorders, were used to produce an in vitro Parkinson's model (Que R, et al., 2021, Front. Immunol. 12). Cells were cultured in DMEMF12/Glutamax supplemented with 10% FBS.
# Cells were treated for 24 hours with the neurotoxin 6-hydroxydopamine (6-OHDA, Sigma Aldrich 162957) at 50, 100 μM concentrations alone or in combination with AAT 25 μM (AAT plasma derived, Sigma Aldrich batch A9024). Cells treated with AAT alone or in combination with 6-OHDA for 24 hours, were then incubated with fresh AAT for additional 24 hours. Control cells were treated with PBS.
# At day 0 cells were plated in equally number in 24-well plate, the day after they were treated as described above, and final total cell count was performed at day 4 of culture (cell growth). Cell viability was assessed with Cell Counting Kit-8 (CCK-8; Sigma Aldrich 96992). After treatments, cells were incubated with 10 μl of CCK-8 solution for 2 hours in the incubator. Absorbance was measured at 450 nm using SpectraMax iD3 Microplate Reader. Experiments were performed in triplicate.
# Microglial (HMC3) cells = assay: IL6 and IL1B gene expression (qPCR) in IFNγ-induced microglia; assay type: cell-based, human; conditions: HMC3, IFNγ 10 ng/mL 24 h; AAT 25 μM or peptides 50 μM
# Protocol: Microglial (HMC3) cells were seeded into 96-well plates at a density of approximately 2500 cells/well. Plasma derived AAT (Sigma, 25 μM) or peptide 8, peptide 9 or peptide 14 (Syngene, 50 μM) were added, and microglial activation was induced with interferon gamma (IFNγ) (10 ng/mL) for 24 h with no preincubation. Then, the RNA was extracted (RNAeasy mini kit, Qiagen) and the expression of the Interleukin-6 (IL6) and Interleukin-Ibeta (ILIB) genes were analysed. qPCR was performed with Syber green POWER UP master mix using 10 ng/well of cDNA in all gene expression results.
# plasma TMPRSS5 = assay: Plasma TMPRSS5, CIDP mouse model; assay type: in vivo; conditions: CIDP + AAT
# Protocol: as §1
# On the day preceding disease induction (Day 1), on the first (Day 20) and on the last (Day 35) treatment day, animals were subjected to blood samplings for the determination of neurofilament light chain (NfL), tumour necrosing factor alpha (TNFα) and TMPRSS5 levels, as described in FIG. 20. In addition, plasma levels of AAT were evaluated on the last treatment day.
# [2] = tested on: C3-PMP22 transgenic mice (CMT1A); assay: Grip strength test, CMT1A mouse study (50 mg/kg twice daily); assay type: in vivo; conditions: for Grip strength (Mean ± SEM) / Grip strenght, Mean/animal / Grip strenght, set 1, individual animals / Grip strenght, set 2, individual animals / Grip strenght, set 3, individual animals: CMT1A + AAT
# Description: As a murine model of CMT1A we used C3-PMP22 transgenic mice (B6.Cg-Tg(PMP22)C3Fbas/J, The Jackson Laboratory) which express three copies of a wild-type human peripheral myelin protein 22 (PMP22) gene (Verhamme, Camiel, et al. Journal of Neuropathology & Experimental Neurology 70.5 (2011): 386-398). Mice were housed in macrolon cages with filter hoods, in a continuously air-filtered room, thereby avoiding contamination. During experiments, paired animals were caged at a constant temperature with a day/night cycle of 12/12 hours. Animals were fed (control tap water and nutrition) ad libitum. Animal protocol is approved by the Animal Studies Committee of Languedoc Roussillon. This protocol and the laboratory procedures comply with French legislation, which implements the European Directives (Reference Number: D3417223, APAFIS #23920-2020020320279696 v3). Animal health was followed on a daily basis to ensure that only animals in good health enter the testing procedures and follow up the study.
# Animals were split in 3 groups (wild-type control (subcutaneous 0.9% NaCl), CMT1A-vehicle (subcutaneous 0.9% NaCl), CMT1A-human alpha-1 antitrypsin (subcutaneous, twice daily, 50 mg/kg per injection)) of 3 mice each (3 weeks old males of 18±2.5 g at the beginning of study) and all went through the following protocol after 7 days of acclimation on site.
# On the first and last day of treatment, the neuromuscular performance of animals was tested with a rotarod test, grip test and sciatic nerve electrophysiology test. After the last treatment at 8 weeks, these tests were repeated, and animals were sacrificed and the left sciatic nerve was sampled for histological evaluation of the number and size of […].
# Grip strength test measures neuromuscular strength by assessing the animal's grasp of a metal grid. […] At the baseline, the differences of grip strengths between groups were not statistically significant.
substance,measurement,setting,value
alpha1-antitrypsin (AAT) protein,Bodyweight,"[1]; day 1 (before disease induction), in g (unit assumed)",20.74 and 20.81 and 19.50 and 20.65
same,Bodyweight,"[1]; day 5 (before treatment), in g (unit assumed)",20.92 and 21.07 and 20.12 and 20.71
same,Bodyweight,[1]; day 9 (before treatment),21.26 (2×) and 20.54 and 21.00
same,Bodyweight,"[1]; day 13 (before treatment), in g (unit assumed)",21.76 and 21.37 and 20.24 and 21.18
same,Bodyweight,"[1]; day 17 (before treatment), in g (unit assumed)",21.92 and 21.54 and 21.35 and 21.90
same,Bodyweight,"[1]; day 20 (first treatment day), in g (unit assumed)",22.06 and 21.58 and 21.41 and 22.04
same,Bodyweight,"[1]; day 23, in g (unit assumed)",22.21 and 21.71 and 21.43 and 22.13
same,Bodyweight,"[1]; day 26, in g (unit assumed)",22.31 and 21.78 and 21.47 and 22.20
same,Bodyweight,"[1]; day 29, in g (unit assumed)",22.49 and 21.87 and 21.53 and 22.30
same,Bodyweight,"[1]; day 32, in g (unit assumed)",22.68 and 22.00 and 21.64 and 22.45
same,Bodyweight,"[1]; day 35, in g (unit assumed)",22.79 and 22.14 and 21.65 and 22.62
same,threshold of paw withdrawal compared to the vehicle treated group,"CIDP mice; CIDP + AAT 50 mg/kg sc twice daily, Day 35",increased
same,"Von Frey, paw withdrawal threshold (Mean ± SD)",CIDP mice; Day 20 (baseline),3.16 ± 0.95 grams
same,"Von Frey, paw withdrawal threshold (Mean ± SD)","CIDP mice; Day 35, AAT 50 mg/kg sc twice daily",5.71 ± 0.41 grams
same,"von Frey test, Paw withdrawal threshold, group MEAN",CIDP mice; Baseline (Day 20),3.16 grams
same,"von Frey test, Paw withdrawal threshold, group MEAN",CIDP mice; Day 35,5.80 grams
same,"von Frey test, Paw withdrawal threshold, Mean/animal",CIDP mice; Baseline (Day 20),4.30 grams and 2.10 grams and 2.74 grams and 3.48 grams
same,"von Frey test, Paw withdrawal threshold, Mean/animal",CIDP mice; Day 35,5.60 grams and 5.24 grams and 6.21 grams and 6.14 grams
same,"von Frey test, Paw withdrawal threshold, set 1",CIDP mice; Baseline (Day 20),4.6 grams and 2.1 grams and 3.3 grams and 4.5 grams
same,"von Frey test, Paw withdrawal threshold, set 2",CIDP mice; Baseline (Day 20),2.4 grams and 1.8 grams and 2.1 grams and 2.2 grams
same,"von Frey test, Paw withdrawal threshold, set 3",CIDP mice; Baseline (Day 20),6.0 grams and 2.4 grams and 2.8 grams and 3.8 grams
same,"von Frey test, Paw withdrawal threshold, set 1",CIDP mice; Day 35,5.3 grams and 5.9 grams and 7.7 grams and 5.1 grams
same,"von Frey test, Paw withdrawal threshold, set 2",CIDP mice; Day 35,5.1 grams and 3.7 grams and 5.3 grams and 7.0 grams
same,"von Frey test, Paw withdrawal threshold, set 3",CIDP mice; Day 35,6.4 grams and 6.1 grams and 5.7 grams and 6.3 grams
same,cell count and viability compared to 6-OHDA treatment alone,SH-SY5Y cells,significantly enhanced
same,IL1B expression reduced by,Microglial (HMC3) cells,60-70%
same,IL6 expression reduced by,Microglial (HMC3) cells,30-40%
same,plasma TMPRSS5 concentration compared to the vehicle group,plasma TMPRSS5,No statistically significant differences
same,Grip strength (Mean ± SEM),[2]; 6 weeks old,5.86 ± 0.57 newtons
same,"Grip strenght, Mean/animal",[2]; 6 weeks old (baseline),5.10 Newtons and 6.97 Newtons and 5.51 Newtons
same,"Grip strenght, set 1, individual animals",[2]; 6 weeks old (baseline),5.84 Newtons and 7.10 Newtons and 5.94 Newtons
same,"Grip strenght, set 2, individual animals",[2]; 6 weeks old (baseline),7.62 Newtons and 7.19 Newtons and 3.08 Newtons
same,"Grip strenght, set 3, individual animals",[2]; 6 weeks old (baseline),1.82 Newtons and 6.62 Newtons and 7.52 Newtons
same,"Grip strenght, Mean/animal",[2]; 8 weeks old,5.45 Newtons and 4.86 Newtons and 3.88 Newtons
same,"Grip strenght, set 1, individual animals",[2]; 8 weeks old,6.55 Newtons and 4.01 Newtons and 2.76 Newtons
same,"Grip strenght, set 2, individual animals",[2]; 8 weeks old,4.38 Newtons and 6.93 Newtons and 3.67 Newtons
same,"Grip strenght, set 3, individual animals",[2]; 8 weeks old,5.43 Newtons and 3.63 Newtons and 5.21 Newtons
same,Grip strength (Mean ± SEM),[2]; 8 weeks old,4.73 ± 0.46 newtons
same,grip strength compared to the control group,"[2]; CMT1A mice treated with AAT, 8 weeks old",improvement
